# Assay results published in ChEMBL document CHEMBL1201862, “PubChem BioAssay data set” (2004).
# Active and inactive are the calls of the source.
# Legend:
# Ion channel NompC [1] = target: T1, Ion channel NompC (Danio rerio, UniProt Q7T1G6); test: Fluorescence counterscreen assay for TRPML3 agonists: dose response cell-based high-throughput screening assay to identify agonists of the transient receptor potential channel N1 (TRPN1). [Related pubchem assays: 1526, 1424, 1448 ]; format: functional
# T1 sequence (Q7T1G6 whole entry): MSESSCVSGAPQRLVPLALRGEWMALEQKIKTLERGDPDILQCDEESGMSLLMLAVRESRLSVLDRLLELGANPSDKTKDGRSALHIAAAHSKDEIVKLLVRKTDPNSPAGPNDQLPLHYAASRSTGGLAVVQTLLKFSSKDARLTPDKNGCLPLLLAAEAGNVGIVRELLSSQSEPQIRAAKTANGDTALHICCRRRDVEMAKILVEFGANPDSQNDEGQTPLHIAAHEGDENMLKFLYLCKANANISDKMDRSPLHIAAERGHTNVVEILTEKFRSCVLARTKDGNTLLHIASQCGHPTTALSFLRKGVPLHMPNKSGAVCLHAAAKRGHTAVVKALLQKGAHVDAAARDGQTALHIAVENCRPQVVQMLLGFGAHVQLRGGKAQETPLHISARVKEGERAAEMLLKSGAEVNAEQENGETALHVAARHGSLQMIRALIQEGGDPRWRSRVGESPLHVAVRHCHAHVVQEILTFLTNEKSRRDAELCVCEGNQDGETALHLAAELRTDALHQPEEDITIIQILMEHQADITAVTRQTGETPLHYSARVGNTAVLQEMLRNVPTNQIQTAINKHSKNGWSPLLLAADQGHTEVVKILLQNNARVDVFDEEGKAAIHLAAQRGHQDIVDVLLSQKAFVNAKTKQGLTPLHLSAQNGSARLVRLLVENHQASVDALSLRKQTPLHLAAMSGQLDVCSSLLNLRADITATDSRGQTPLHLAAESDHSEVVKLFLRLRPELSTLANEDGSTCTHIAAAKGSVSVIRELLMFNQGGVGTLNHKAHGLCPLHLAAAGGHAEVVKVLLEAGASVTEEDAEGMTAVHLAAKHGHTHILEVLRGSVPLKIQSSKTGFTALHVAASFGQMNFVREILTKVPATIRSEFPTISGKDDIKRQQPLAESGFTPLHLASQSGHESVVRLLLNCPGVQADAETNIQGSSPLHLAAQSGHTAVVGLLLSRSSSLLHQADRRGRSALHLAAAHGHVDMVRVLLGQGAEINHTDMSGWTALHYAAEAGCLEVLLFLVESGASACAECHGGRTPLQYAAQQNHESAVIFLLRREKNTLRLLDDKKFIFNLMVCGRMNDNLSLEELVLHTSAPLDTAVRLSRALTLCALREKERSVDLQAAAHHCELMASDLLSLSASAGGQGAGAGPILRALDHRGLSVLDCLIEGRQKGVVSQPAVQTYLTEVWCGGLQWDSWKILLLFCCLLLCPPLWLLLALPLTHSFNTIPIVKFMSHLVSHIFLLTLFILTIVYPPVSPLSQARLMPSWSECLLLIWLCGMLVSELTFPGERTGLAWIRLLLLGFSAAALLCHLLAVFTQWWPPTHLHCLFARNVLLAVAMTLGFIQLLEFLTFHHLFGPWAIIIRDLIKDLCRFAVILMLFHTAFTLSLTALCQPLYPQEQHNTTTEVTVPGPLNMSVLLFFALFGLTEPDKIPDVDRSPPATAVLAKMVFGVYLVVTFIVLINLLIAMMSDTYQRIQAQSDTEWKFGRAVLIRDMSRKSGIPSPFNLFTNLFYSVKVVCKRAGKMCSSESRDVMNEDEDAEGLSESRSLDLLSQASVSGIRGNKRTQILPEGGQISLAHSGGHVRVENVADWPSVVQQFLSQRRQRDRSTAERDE
# Mucolipin-3 = target: T2, Mucolipin-3 (Homo sapiens, UniProt Q8TDD5); test: Dose response cell-based high-throughput screening assay for agonists of the transient receptor potential channel ML3 (TRPML3). [Related pubchem assays: 1526, 1424, 1448 ]; format: functional
# T2 sequence (Q8TDD5 whole entry): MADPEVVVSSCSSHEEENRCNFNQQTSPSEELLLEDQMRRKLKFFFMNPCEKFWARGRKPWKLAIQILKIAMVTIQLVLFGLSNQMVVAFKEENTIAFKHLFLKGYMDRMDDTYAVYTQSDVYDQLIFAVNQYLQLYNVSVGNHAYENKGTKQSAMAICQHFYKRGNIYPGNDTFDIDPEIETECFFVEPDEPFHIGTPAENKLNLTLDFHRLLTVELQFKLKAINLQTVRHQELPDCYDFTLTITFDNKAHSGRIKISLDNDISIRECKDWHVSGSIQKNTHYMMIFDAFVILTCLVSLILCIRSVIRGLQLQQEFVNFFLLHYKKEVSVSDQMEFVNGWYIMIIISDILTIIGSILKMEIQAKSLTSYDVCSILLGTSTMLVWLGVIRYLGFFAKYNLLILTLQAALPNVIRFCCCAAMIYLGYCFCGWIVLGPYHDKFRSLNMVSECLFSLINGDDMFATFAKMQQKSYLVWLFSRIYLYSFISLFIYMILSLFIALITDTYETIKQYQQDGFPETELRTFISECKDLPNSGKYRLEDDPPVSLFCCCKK
# Ion channel NompC [2] = target: T1, Ion channel NompC; test: activators of mucolipin-3 and mucolipin-2 – cell-based, […], Fura-2 profiling panel, panel member TRPN1 Dose Response (AID 2116)
# Cytochrome P450 2C9 = Cytochrome P450 2C9 (Homo sapiens, UniProt P11712); conditions: Potency
# Cytochrome P450 2C9, sequence (P11712 whole entry): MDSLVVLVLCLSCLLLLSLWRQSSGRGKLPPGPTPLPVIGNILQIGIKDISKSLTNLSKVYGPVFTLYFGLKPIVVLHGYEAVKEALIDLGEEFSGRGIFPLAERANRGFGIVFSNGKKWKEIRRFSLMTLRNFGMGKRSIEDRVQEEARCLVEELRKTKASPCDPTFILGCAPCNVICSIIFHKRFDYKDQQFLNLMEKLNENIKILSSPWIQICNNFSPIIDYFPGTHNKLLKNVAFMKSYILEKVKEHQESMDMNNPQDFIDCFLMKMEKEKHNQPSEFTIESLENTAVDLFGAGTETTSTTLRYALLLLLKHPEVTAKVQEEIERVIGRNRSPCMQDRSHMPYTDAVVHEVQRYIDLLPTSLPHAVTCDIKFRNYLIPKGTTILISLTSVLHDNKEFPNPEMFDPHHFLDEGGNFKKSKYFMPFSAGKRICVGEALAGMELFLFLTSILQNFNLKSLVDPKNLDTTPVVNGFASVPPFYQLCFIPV
# Streptococcus [3] = test: Luminescence Microorganism-Based Dose Response Follow up to Identify Compounds Cytotoxic to Streptococcus. [Related pubchem assays: 1677 (Project Summary), 1915, 1914, 1902 (Retest at Dose), 1900 (Counter Screen), 1662 (Primary HTS)]; format: functional, organism-based
# [4] = system: Streptococcus sp. 'group A'; test: Streptococcus pyogenes SK(-)GAS viability under kanamycin – luminescence, BacTiterGlo, confirmation, counter-screen for streptokinase expression inhibitor project, dose response (AID 1900); format: functional, organism-based
# Streptokinase A = target: T3, Streptokinase A (Streptococcus pyogenes serotype M1, UniProt P10520); test: viability-normalized secreted streptokinase activity reduction – plasminogen activation absorbance, OD405, dose response (AID 1914); format: functional, Streptococcus pyogenes M1 GAS;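 also: secreted streptokinase activity via plasminogen activation per viability signal from cell pellet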
# T3 sequence (P10520 whole entry): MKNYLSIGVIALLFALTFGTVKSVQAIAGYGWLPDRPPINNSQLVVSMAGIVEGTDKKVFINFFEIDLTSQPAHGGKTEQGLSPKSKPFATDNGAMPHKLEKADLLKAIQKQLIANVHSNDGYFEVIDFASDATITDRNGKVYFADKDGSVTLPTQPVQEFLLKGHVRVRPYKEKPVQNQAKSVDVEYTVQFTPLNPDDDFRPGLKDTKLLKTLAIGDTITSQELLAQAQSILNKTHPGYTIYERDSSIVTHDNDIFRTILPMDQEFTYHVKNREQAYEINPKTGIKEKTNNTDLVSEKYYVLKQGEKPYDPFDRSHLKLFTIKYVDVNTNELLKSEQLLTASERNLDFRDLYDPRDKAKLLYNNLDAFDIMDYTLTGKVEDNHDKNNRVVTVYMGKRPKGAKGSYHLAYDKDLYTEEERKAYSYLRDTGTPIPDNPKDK
# Streptococcus [5] = test: GAS UMAA2166 growth inhibition – luminescence, BacTiterGlo, counter-screen for streptokinase expression inhibitor project, dose response (AID 1915); format: functional, organism-based;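 also: potency for reduction of bacterial viability or growth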
# HeLa = test: viability loss in HeLa cells – cell-based, 24 h, cherry-picked samples, cytotoxicity control, dose response (AID 504726); format: functional; conditions: Homo sapiens;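 also: potency for cytotoxicity as loss of luminescence signal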
# [6] = target: T4, RNA-binding protein pos-1 (Caenorhabditis elegans, UniProt G5EF15); test: disruptors of C. elegans POS-1 RNA interaction – biochemical, fluorescence polarization, dose response (AID 1964);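 also: purified POS-1 fused to maltose binding protein made in E. coli; potency of compounds blocking POS-1 binding to fluorescent RNA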
# T4 sequence (G5EF15 whole entry): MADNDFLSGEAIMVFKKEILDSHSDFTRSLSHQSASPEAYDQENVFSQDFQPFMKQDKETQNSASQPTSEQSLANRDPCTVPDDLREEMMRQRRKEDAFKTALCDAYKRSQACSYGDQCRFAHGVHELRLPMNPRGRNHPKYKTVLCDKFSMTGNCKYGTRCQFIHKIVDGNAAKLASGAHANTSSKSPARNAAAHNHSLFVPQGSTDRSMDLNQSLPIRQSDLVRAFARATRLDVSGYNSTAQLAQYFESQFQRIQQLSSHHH
# ORF 73 = ORF 73 (Human herpesvirus 8, UniProt O40947); test: KSHV LANA DNA-binding disruption – biochemical, fluorescence polarization, cherry-picked samples, dose response (AID 504725); parameters: species or system Human gammaherpesvirus 8;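 also: fluorescence polarization of a labeled DNA duplex reporting LANA DNA binding; potency is for inhibitors that block LANA binding to the DNA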
# Salmon testes DNA = test: acridine orange-DNA binding displacement – biochemical, fluorescence polarization, cherry-picked samples, set 2, artefact control for KSHV LANA DNA-binding inhibitor project, dose response (AID 504727); parameters: species or system Salmonidae
# cells [7] = conditions: A549
# cells [8] = conditions: HEK293
# [9] = IC50 of Artemis nuclease activity blockers – biochemical, fluorescence intensity, dose response (AID 720701); format: functional;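 also: Artemis endonuclease enzyme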
# [10] = target: Luciferin 4-monooxygenase (Photinus pyralis, UniProt P08659); test: Counter Screen for Luciferase-based Assay Positives. [Related pubchem assays: 620, 618, 411 ]
# [11] = target: T5, Microphthalmia-associated transcription factor (Homo sapiens, UniProt O75030); test: reducers of TRPM1 reporter luminescence, concentration series – cell-based, SK-MEL-5, cherry-picked, set 3, MITF inhibitor project, dose response (AID 493073); format: functional;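 also: SK-MEL-5 melanoma cells with luciferase driven by the MITF target TRPM1 promoter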
# T5 sequence (O75030 whole entry): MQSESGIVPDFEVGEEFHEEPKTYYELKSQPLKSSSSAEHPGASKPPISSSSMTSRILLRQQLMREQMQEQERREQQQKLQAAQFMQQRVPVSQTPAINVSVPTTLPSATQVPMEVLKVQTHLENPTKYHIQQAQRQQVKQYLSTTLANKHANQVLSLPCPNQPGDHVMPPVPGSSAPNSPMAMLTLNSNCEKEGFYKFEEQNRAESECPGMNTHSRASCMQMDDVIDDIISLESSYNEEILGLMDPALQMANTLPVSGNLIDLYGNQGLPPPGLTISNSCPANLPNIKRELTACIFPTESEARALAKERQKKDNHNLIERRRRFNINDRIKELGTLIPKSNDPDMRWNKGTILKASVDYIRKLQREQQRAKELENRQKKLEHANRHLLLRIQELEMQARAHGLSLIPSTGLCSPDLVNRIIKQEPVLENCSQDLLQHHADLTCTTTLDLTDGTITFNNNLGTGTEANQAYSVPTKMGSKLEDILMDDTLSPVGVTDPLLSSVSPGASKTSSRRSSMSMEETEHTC
# HT-1080 = test: HT1080 cell viability loss – fluorescence readout (AID 620); format: functional, cell-based; conditions: Homo sapiens
# [12] = viability loss in HepG2 liver cells – cell-based, ATP luminescence, cherry-pick, set 6, cytotoxicity control, dose response (AID 1053125); format: functional
# [13] = target: T6, Zinc finger protein mex-5 (Caenorhabditis elegans, UniProt Q9XUB2); test: potency of MEX-5 RNA-binding blockers – biochemical, C. elegans, fluorescence polarization, dose response (AID 1960)
# T6 sequence (Q9XUB2 whole entry): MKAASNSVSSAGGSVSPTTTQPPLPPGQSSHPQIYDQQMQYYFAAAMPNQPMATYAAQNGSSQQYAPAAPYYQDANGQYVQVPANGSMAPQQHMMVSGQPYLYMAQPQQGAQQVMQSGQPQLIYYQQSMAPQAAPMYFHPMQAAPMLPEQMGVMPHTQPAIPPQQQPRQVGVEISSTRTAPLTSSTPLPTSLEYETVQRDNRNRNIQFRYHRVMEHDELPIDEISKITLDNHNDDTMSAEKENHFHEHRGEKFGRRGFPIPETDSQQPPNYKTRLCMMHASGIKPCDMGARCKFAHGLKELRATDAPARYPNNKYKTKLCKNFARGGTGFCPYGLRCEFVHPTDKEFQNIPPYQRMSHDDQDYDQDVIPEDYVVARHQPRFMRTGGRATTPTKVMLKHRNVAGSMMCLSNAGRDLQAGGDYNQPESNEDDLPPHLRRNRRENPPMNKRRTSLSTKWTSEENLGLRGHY
# H9c2 = test: cells; format: functional, cell-based; conditions: Rattus norvegicus, H9c2, Myocardium;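 also: confirmatory concentration-response retest of ultra-high-throughput screening hits for modulation of myocardial damage; cell death induced by hydrogen peroxide oxidative stress; compound pretreatment for 60 min then peroxide exposure for 2 h; potency is for protecting the cells against peroxide damage rather than for killing them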
# Aspartyl aminopeptidase = target: T7, Aspartyl aminopeptidase (Plasmodium falciparum 3D7, UniProt Q8I2J3)
# T7 sequence (Q8I2J3 whole entry): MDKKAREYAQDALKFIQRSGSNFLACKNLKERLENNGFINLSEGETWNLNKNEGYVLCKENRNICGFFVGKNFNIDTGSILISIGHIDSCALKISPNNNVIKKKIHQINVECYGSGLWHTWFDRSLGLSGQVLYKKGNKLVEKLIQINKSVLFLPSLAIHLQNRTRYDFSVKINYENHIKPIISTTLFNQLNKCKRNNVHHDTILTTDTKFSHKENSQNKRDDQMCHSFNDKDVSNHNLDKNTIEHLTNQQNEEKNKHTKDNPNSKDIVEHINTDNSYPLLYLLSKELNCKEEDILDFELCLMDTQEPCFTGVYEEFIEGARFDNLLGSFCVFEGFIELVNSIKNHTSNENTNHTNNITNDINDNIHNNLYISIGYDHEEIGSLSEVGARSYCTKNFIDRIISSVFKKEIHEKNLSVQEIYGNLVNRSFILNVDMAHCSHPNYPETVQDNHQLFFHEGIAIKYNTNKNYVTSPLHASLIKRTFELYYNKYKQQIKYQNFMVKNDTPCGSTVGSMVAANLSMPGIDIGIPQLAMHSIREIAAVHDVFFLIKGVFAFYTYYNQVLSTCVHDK
# Procathepsin L = Procathepsin L (Homo sapiens, UniProt P07711)
# [14] = target: NACHT, LRR and PYD domains-containing protein 3 (Homo sapiens, UniProt Q96P20); test: NALP3 inhibitors in yeast, dose response, luminescent (AID 488799); format: functional
# [15] = target: Melanin-concentrating hormone receptor 1 (Homo sapiens, UniProt Q99705); test: Late-stage fluorescence-based counterscreen for antagonists of the G-protein coupled receptor 7 (GPR7): cell-based dose response assay to identify antagonists of the melanin-concentrating hormone receptor 1 (MCHR1). [Related pubchem assays (depositor defined):AID1861, AID1880, AID1952, AID2148, AID2251, AID2257, AID485339]; format: functional;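 also: stimulated with 30 nM MCH peptide agonist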
# [16] = target: T8, Neuropeptides B/W receptor type 1 (Homo sapiens, UniProt P48145); test: human NPBW1 receptor blockade, IC50 – cell-based, fluorescence, dose response, late-stage follow-up (AID 463251); format: functional
# T8 sequence (P48145 whole entry): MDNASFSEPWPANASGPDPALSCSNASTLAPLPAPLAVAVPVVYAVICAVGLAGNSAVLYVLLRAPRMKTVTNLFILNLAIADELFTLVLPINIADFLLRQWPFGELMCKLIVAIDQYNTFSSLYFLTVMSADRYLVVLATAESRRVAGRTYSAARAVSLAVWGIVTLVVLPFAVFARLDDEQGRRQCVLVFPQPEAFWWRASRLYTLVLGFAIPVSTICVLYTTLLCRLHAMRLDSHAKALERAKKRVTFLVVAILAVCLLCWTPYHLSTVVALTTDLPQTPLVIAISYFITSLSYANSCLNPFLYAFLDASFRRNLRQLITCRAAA
# [17] = target: NAD-dependent protein deacylase sirtuin-5, mitochondrial (Homo sapiens, UniProt Q9NXA8); test: sirtuin-5 deacylation blockers, concentration series – biochemical, fluorescence imaging, cherry-pick, set 5, dose response (AID 720591);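 also: desuccinylation of succinyl peptide AMC substrate read as fluorescence after trypsin release; potency of inhibitors that lower fluorescence and may act on trypsin instead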
# [18] = target: Peroxisome proliferator-activated receptor gamma/Nuclear receptor corepressor 2 (Homo sapiens, UniProt P37231+Q9Y618); format: functional
# Peroxisome proliferator-activated receptor gamma/Nuclear receptor corepressor 2, sequence (P37231 whole entry): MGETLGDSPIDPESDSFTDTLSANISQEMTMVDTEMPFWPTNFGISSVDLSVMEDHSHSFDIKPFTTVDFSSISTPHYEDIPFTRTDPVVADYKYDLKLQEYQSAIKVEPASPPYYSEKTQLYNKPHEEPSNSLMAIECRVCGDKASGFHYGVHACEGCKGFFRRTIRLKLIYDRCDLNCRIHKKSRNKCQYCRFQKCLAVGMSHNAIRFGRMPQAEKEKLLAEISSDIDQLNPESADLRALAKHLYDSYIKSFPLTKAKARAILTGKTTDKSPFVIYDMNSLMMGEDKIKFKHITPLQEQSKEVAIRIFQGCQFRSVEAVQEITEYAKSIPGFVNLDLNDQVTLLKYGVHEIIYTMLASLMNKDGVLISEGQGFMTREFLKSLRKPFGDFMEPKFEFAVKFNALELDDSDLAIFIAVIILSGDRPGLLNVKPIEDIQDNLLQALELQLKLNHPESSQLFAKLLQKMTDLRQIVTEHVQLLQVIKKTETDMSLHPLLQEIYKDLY
# Peroxisome proliferator-activated receptor gamma/Nuclear receptor corepressor 2, sequence (Q9Y618 whole entry): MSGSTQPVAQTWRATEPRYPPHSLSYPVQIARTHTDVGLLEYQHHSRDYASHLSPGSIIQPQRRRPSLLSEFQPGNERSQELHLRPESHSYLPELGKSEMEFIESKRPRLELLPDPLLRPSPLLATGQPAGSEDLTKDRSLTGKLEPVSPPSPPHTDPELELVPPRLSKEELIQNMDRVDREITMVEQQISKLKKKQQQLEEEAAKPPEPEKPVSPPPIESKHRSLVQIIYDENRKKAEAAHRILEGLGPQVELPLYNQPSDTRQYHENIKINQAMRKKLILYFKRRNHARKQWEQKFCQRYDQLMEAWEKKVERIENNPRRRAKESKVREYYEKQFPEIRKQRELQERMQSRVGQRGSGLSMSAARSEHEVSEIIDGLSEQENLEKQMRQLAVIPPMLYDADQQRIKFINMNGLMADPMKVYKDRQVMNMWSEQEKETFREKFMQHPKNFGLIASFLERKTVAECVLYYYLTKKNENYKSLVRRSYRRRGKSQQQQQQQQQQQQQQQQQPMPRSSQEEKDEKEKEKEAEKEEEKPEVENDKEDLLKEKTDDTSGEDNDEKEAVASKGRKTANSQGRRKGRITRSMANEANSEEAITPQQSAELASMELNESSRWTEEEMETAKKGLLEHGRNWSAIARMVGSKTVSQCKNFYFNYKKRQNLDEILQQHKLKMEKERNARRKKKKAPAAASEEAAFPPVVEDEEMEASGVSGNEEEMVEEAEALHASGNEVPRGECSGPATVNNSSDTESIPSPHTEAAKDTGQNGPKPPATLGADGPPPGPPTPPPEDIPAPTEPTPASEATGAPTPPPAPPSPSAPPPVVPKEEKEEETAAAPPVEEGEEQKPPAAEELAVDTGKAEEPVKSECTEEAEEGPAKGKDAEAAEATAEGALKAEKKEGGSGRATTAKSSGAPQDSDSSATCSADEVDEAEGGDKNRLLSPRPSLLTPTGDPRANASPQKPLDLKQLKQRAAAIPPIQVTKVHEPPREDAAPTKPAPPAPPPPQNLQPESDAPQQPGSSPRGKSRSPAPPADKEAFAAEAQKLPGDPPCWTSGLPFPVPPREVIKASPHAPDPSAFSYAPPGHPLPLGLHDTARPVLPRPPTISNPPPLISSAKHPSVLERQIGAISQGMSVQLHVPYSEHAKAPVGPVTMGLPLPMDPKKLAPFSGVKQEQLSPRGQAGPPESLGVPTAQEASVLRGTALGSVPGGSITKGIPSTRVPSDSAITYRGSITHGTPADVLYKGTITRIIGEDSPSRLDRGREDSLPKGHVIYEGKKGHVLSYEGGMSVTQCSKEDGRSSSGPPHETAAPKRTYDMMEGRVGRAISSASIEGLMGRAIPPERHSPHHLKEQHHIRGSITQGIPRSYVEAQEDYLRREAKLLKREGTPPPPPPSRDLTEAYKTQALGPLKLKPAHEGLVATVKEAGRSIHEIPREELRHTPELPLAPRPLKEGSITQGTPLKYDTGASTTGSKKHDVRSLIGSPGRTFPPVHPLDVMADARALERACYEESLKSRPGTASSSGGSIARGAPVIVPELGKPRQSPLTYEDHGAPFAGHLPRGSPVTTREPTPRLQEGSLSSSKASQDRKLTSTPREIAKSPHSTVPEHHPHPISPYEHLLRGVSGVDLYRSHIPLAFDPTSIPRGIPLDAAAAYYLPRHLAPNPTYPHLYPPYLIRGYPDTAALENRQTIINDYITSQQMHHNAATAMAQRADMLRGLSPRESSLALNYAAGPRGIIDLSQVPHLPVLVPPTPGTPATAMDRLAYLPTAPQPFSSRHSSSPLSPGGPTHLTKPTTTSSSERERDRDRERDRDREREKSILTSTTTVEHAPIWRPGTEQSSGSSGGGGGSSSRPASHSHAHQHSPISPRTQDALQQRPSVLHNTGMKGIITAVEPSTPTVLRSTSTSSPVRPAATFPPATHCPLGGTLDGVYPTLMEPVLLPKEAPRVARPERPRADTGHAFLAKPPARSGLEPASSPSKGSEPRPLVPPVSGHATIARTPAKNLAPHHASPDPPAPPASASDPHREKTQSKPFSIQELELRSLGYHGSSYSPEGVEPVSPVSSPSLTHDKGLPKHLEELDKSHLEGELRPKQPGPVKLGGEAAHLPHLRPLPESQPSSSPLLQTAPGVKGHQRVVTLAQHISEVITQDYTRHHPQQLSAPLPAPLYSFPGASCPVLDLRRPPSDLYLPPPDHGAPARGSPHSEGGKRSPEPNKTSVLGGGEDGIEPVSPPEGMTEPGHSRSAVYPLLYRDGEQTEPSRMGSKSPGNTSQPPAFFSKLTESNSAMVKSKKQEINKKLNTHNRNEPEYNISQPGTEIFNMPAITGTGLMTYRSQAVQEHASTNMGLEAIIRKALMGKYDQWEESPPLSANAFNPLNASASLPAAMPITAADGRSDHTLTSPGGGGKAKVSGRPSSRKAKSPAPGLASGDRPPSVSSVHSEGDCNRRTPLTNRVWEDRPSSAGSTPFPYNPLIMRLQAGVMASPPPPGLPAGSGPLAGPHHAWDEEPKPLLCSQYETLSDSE
# [19] = target: Photoreceptor-specific nuclear receptor (Homo sapiens, UniProt Q9Y5X4); format: functional;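 also: potency for compounds that break the NR2E3 corepressor complex and count as activators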
smiles,measurement,setting,value
O=S(=O)(Nc1ccccc1N1CCOCC1)c1ccc(Cl)s1,EC50,Ion channel NompC [1],> 29.9 µM (not active)
same,EC50,Mucolipin-3,1.36 µM (active)
same,EC50,Ion channel NompC [2],> 29.9 µM (inactive)
CC(C)C[C@@H](CC(=O)N[C@H](CC(=O)N[C@@H]1CCCC[C@H]1C(=O)N[C@H](CC(=O)N[C@@H](CCC(=O)O)CC(=O)O)CC(C)C)C(C)C)NC(=O)[C@@H]1CCCC[C@H]1N,AC50,Cytochrome P450 2C9,39.8 µM (inconclusive)
FC(F)(F)c1cc(-c2ccco2)nc(NCc2ccc(Cl)cc2)n1,EC50,Streptococcus [3],9.49 µM (active)
same,EC50,[4],8.27 µM (active)
same,EC50,Streptokinase A,9.32 µM (active)
same,EC50,Streptococcus [5],> 150 µM (not active)
c1ccc(-c2cn3nc4c(nc3n2)CCCC4)cc1,AC50,HeLa,31.1 µM (active)
same,EC50,[6],14.3 µM (active)
same,AC50,ORF 73,94.3 µM (active)
same,AC50,Salmon testes DNA,169 µM (active)
same,AC50,cells [7],15.8 µM (active)
same,AC50,cells [8],12.7 µM (active)
same,IC50,[9],> 20 µM (inactive)
same,EC50,[10],0.29 µM (active)
same,AC50,[11],5.89 µM (active)
same,EC50,HT-1080,> 50 µM (not active)
same,AC50,[12],> 52 µM (inactive)
same,EC50,[13],10.6 µM (active)
CCOC(=O)Cc1csc(NC(=O)NC2(C(F)(F)F)Oc3ccccc3O2)n1,IC50,H9c2,17.5 µM (active)
same,IC50,Aspartyl aminopeptidase,3.02 µM (active)
same,IC50,Procathepsin L,> 59.6 µM (not active)
O=C(NCCCc1ccccc1)c1c(O)nc2sccn2c1=O,IC50,[14],9.61 µM (active)
Cc1ccc(-n2ncc(Cl)c(Oc3ccc(OC(F)(F)F)cc3)c2=O)cc1,IC50,[15],2.9 µM (active)
same,IC50,[16],0.88 µM (active)
Cc1cc(N2C(=O)C(O)=C(C(=O)c3cc4ccccc4o3)C2c2ccc(Br)cc2)no1 (stereo unspecified),AC50,[17],17.5 µM (active)
same,IC50,[18],2.92 µM (active)
same,EC50,[4],2.01 µM (active)
same,IC50,[19],> 39.8 µM (not active)
same,EC50,Streptococcus [5],2.78 µM (active)
